Measured values from US20070092464A1, “Betadine neutralizer” (priority 2005, published 2007).

What was measured:
[1] = cosmetic remover solution with parabens; cited from earlier work
[2] = use of the metabisulfite solution directly on human and animal patients (tolerability); type: in vivo; conditions: 0.020 to 0.035 percent by weight in water, on skin
From the text: Additionally, the same solution is effective for removing stains elsewhere. The solutions of the present embodiments may be packaged for liquid application, such as in bottles, or sprays, or swabs.

[3] = Iodine stain removal, trial and error testing / actual usage
From the text: In use, the desired level of concentration may be intentionally varied to correspond to anticipated situations. For instance, products that are directed towards general cleanup, such as flooring, or equipment, or linens, may be made at the higher ranges so as to ensure quick and complete neutralization of the Iodine. The higher concentrations serve also to overcome any associated soil or other materials that may impede the action of the sodium metabisulfite on the Iodine stains.

SMILES	irritation or other adverse reactions in and about the eyes of users [1]	deleterious effects or irritation to the patient [2]	effectiveness in eliminating Iodine staining ([3]; 0.020 to 0.035 percent by weight in water)	effectiveness of Iodine stain removal compared to modest aqueous solutions of sodium metabisulfite ([3]; sodium thiosulfate in an alkaline detergent type matrix, actual usage)
O=S([O-])S(=O)(=O)[O-].[Na+].[Na+] [sodium metabisulfite]	did not contribute to any irritation or other adverse reactions	does not show any deleterious effects or irritation	highly effective	–
O=S([O-])([O-])=S.[Na+].[Na+] [sodium thiosulfate, reference compound]	–	–	–	weak
